# Measured values from US8163776B2, “Method of immunomodulation using thione-forming disulfides” (Grassetti family Trust, priority 2001, dated 2012).
# Several values for one entry are separate records, joined by “and”; a condition that tells them apart may be missing. Equal values may be shown once.
# Key:
# [1] = Weight gain of mice on CPDS diet; type: in vivo, BALB/c mice
# Experimental: To prepare a CPDS diet, a total of 3 kilos of Standard Purina chow was reduced to powder using a grinder. About 12 g of CPDS was added to the powder and thoroughly mixed, re-hydrated and reconstituted into pellets. Pellets were allowed to dry overnight.
# Male adult BALB/c mice were weighed and randomly divided to form the experimental groups. Mice were allowed to acclimatized 3 days prior to the beginning of the experiments. Mice from the control normal diet groups were fed ad libitum with standard Purina mouse chow. Mice from the CPDS treated groups were fed ad libitum with the CPDS preparation. The amount of food given was weighted and recorded to allow the evaluation of the CPDS dosage.
# The weight gained by each mice was evaluated weekly and prior to sacrifice. Mice were sacrificed by overexposure to CO2. The spleen from each mouse was collected under sterile conditions, transferred into HBSS buffered solution and kept on ice until used for other studies disclosed. Experiments were performed on the same day.
# [2] = system: feline immunodeficiency virus (FIV); test: CPDS in an FIV-positive cat with FIDS symptoms (Example 10); type: in vivo
# Excerpt: A very ill, young, spayed male cat ws presented with symptoms of feline immunodeficiency syndrome (FIDS). He had fever, diarrhea, and his glands were swollen. His coat was dull and the cat was listless.
# His blood tested positive for feline immunodeficiency syndrome (FIV), as determined by ELISA testing with feline immunodeficiency virus antibody from Indexx Laboratories (Westbrook, Me.). The cat's weight upon presentation was 9.5 lbs.
# Treatment of the cat with CPDS commenced the same day with a daily dose of 280 mg CPDS in the cat's diet. The regimen was continued for 30 days. […] The hair on the cat's muzzle and back was still thin. CPDS treatment was continued at 140 mg/day for another 60 days. […] His coat was rich and shiny, his eyes became bright, and his behavior was normal for a spayed male cat. The cat's weight after 60 days of treatment was 10.2 lbs, a gain of about 300 grams.
# lymphocytes = test: Mitogenic proliferation of splenocytes (3H-thymidine incorporation); type: in vivo, BALB/c mice
# Experimental: Splenocytes were diluted to a concentration of 1×10^6 cells/ml in complete RPMI media. Aliquots of 100 μl were transferred into a 96 well flat bottom plate. Mitogen stock solutions were prepared at a concentration of 1 mg/ml in D-PBS and frozen at −20° C. Working solution were prepared freshly in complete RPMI media at the following concentration (10×): 500 μg/ml PHA, 50 μg/ml concanavalin A (con A), and 50 μg/ml LPS. Aliquots of 100 μl of each mitogens were transferred in triplicate in the corresponding wells. Final concentration (1×) in each well was 50 μg/ml PHA, 5 μg/ml con A, and 5 μg/ml LPS. For negative control, 100 μl of complete RPMI media was added in triplicate, instead of the mitogens. Cells were incubated for a total of 72 hours in 37° C., 5% CO2, humidified incubator. Twenty hours before the end of the incubation, 1 μCi per well of ^3H-thymidine was added to each well. Cells were harvested using a Harvester® 96 from Tomtec. Filters were transferred into scintillation vials. Scintillation liquid, 4 ml was added to each vial. Radioactivity was counted using Beckman LS-6500 Beta counter. The results were expressed in CPM. The mean and standard deviation of triplicate samples are calculated. Results are expressed as stimulation index (SI) as follows:
# [formula] • where experimental value=with mitogens (PHA, ConA and LPS) and control value=with RPMI. For each mitogen, results were compared and Student's T test was performed between the control group and the treated group. The p value was calculated for statistical significance.
# The lymphoproliferative response is a widely studied function of T and B lymphocytes. Three different mitogens with different specificity for different lymphocyte subsets were used. PHA and ConA are standard mitogens that stimulate mice T cells and LPS is a mitogen which stimulates B cells. Results are expressed in proliferation capacity (Table 10 and FIGS. 5 and 6). […] This potential may present some therapeutic application against some immune dysfunctions where the lymphoproliferative response is impaired (e.g., viral infections).
# [3] = Group 2 (30 days CPDS diet), group Mean ± S.D.
# [4] = Group 2 (30 days CPDS diet), individual mice
# [5] = Group 4 (45 days CPDS diet), group Mean ± S.D.
# [6] = Group 4 (45 days CPDS diet), individual mice
# [7] = Group 6 (6 days CPDS diet), group Mean ± S.D.
# [8] = Group 6 (6 days CPDS diet), individual mice
# [9] = FIV-positive cat, end of thirty days at 280 mg CPDS daily
# [10] = 30 days on CPDS diet vs normal diet
# [11] = 30 days on CPDS diet, Mean ± S.D.
# [12] = Group 6, 6 days on CPDS diet, Mean ± S.D.
compound,measurement,setting,value
"O=C(O)c1ccc(SSc2ccc(C(=O)O)cn2)nc1 [CPDS, 6,6′-dithiodinicotinic acid]","Animal weight, Day 0",[1]; [3],14.87 ± 1.18 g
same,"Animal weight, Day 6",[1]; [3],17.89 ± 1.2 g
same,"Animal weight, Day 14",[1]; [3],19.36 ± 0.9 g
same,"Animal weight, Day 21",[1]; [3],20.50 ± 0.9 g
same,"Animal weight, Day 28",[1]; [3],22.04 ± 1.0 g
same,"Animal weight, Day 0",[1]; [4],15.87 g and 15.18 g and 12.76 g and 15.67 g and 15.69 g and 15.29 g and 15.25 g and 13.28 g
same,"Animal weight, Day 6",[1]; [4],18.64 g and 19.84 g and 15.20 g and 18.31 g and 18.66 g and 18.54 g and 17.98 g and 16.92 g
same,"Animal weight, Day 14",[1]; [4],19.66 g and 20.46 g and 17.47 g and 19.96 g and 19.78 g and 19.09 g and 19.84 g and 18.65 g
same,"Animal weight, Day 21",[1]; [4],20.10 g and 21.36 g (2×) and 18.72 g and 21.20 g and 20.58 g and 20.79 g and 19.87 g
same,"Animal weight, Day 28",[1]; [4],21.96 g and 22.76 g and 19.99 g and 22.98 g and 22.80 g and 22.31 g and 22.57 g and 20.94 g
same,"Animal weight, Day 0",[1]; [5],14.57 ± 0.8 g
same,"Animal weight, Day 6",[1]; [5],17.74 ± 1.0 g
same,"Animal weight, Day 14",[1]; [5],18.92 ± 1.1 g
same,"Animal weight, Day 21",[1]; [5],19.86 ± 1.1 g
same,"Animal weight, Day 28",[1]; [5],21.60 ± 1.2 g
same,"Animal weight, Day 35",[1]; [5],22.19 ± 1.1 g
same,"Animal weight, Day 45",[1]; [5],22.78 ± 1.1 g
same,"Animal weight, Day 0",[1]; [6],13.58 g and 16.07 g and 14.28 g and 13.75 g and 14.89 g and 15.10 g and 13.67 g and 15.20 g
same,"Animal weight, Day 6",[1]; [6],17.25 g and 18.57 g and 17.03 g and 16.46 g and 17.79 g and 18.38 g and 16.98 g and 19.46 g
same,"Animal weight, Day 14",[1]; [6],18.57 g (2×) and 20.58 g and 18.25 g and 17.66 g and 18.83 g and 18.02 g and 20.86 g
same,"Animal weight, Day 21",[1]; [6],19.72 g and 21.59 g and 19.22 g and 18.38 g and 19.40 g and 19.35 g and 19.45 g and 21.74 g
same,"Animal weight, Day 28",[1]; [6],21.40 g (2×) and 23.72 g and 20.35 g and 20.18 g and 21.41 g and 21.14 g and 23.19 g
same,"Animal weight, Day 35",[1]; [6],21.82 g and 24.00 g and 20.91 g and 20.95 g and 22.47 g and 21.39 g and 22.28 g and 23.68 g
same,"Animal weight, Day 45",[1]; [6],22.71 g and 24.66 g and 20.96 g and 21.78 g and 23.15 g and 22.10 g and 23.09 g and 23.80 g
same,"Animal weight, Day 0",[1]; [7],15.15 ± 1.1 g
same,"Animal weight, Day 6",[1]; [7],18.40 ± 0.7 g
same,"Animal weight, Day 0",[1]; [8],13.90 g and 16.04 g and 15.50 g
same,"Animal weight, Day 6",[1]; [8],17.60 g and 19.18 g and 18.43 g
same,Course of animal weight (in words),"[1]; group fed CPDS diet for 45 days, food intake constant",stabilized after day 35
same,Weight gain vs group on normal Purina chow (in words),"[1]; group fed CPDS for 45 days, p=0.01432",statistically significant lower weight gain
same,Weight gain (in words),[1]; groups fed CPDS diet for 6 and 30 days,constant and normal
same,Cat's health,"[2]; FIV-positive cat, 280 mg CPDS daily in diet, after a few days",showed improvement
same,"Symptoms (fever, diarrhea, swollen glands)",[2]; [9],"fever had subsided, the diarrhea was gone, its glands were no longer swollen"
same,Test for the FIDS antibody,[2]; [9],still tested positive
same,Overall state of the cat,[2]; after 30 days at 280 mg/day and another 60 days at 140 mg/day,appeared to be healed
same,Weight gain of the cat,[2]; after 60 days of treatment vs presentation,about 300 grams
same,Cat's weight after treatment,"[2]; after 60 days of treatment, 9.5 lbs upon presentation",10.2 lbs
same,"Mitogenic Proliferation (SI), LPS, effect of CPDS diet","lymphocytes; 6 days, n=3",No effect
same,"Mitogenic Proliferation (SI), PHA, effect of CPDS diet","lymphocytes; 6 days, n=3",No effect
same,"Mitogenic Proliferation, LPS","lymphocytes; 30 days on CPDS diet (samples G2-1 to G2-8), individual mice, 5 μg/ml LPS",3799.3 and 1426.0 and 4760.0 and 4304.7 and 842.0 and 1407.3 and 2438.0 and 2039.3
same,"Mitogenic Proliferation, CON A","lymphocytes; 30 days on CPDS diet (samples G2-1 to G2-8), individual mice, 5 μg/ml con A",6928.7 and 2621.3 and 11240.7 and 8041.3 and 915.3 and 1023.3 and 3308.7 and 4993.3
same,"Mitogenic Proliferation, PHA","lymphocytes; 30 days on CPDS diet (samples G2-1 to G2-8), individual mice, 50 μg/ml PHA",3565.3 and 1168.0 and 2175.3 and 2300.0 and 603.3 and 717.3 and 1652.6 and 886.0
same,"Mitogenic Proliferation, No stimulation","lymphocytes; 30 days on CPDS diet (samples G2-1 to G2-8), individual mice, no unit in table, method: CPM",78.0 and 69.3 and 66.7 and 82.0 and 57.3 and 72.7 and 72.0 and 58.7
same,"Mitogenic Proliferation, CON A, Variation(%)",lymphocytes; [10],210.2%
same,"Mitogenic Proliferation, LPS, Variation(%)",lymphocytes; [10],82.0%
same,"Mitogenic Proliferation, No stimulation, Variation(%)",lymphocytes; [10],0.2%
same,"Mitogenic Proliferation, PHA, Variation(%)",lymphocytes; [10],144.4%
same,"Mitogenic Proliferation, CON A",lymphocytes; [11],4984.1 ± 3641
same,"Mitogenic Proliferation, LPS",lymphocytes; [11],2627.1 ± 1475
same,"Mitogenic Proliferation, No stimulation",lymphocytes; [11],69.6 ± 8
same,"Mitogenic Proliferation, PHA",lymphocytes; [11],1633.4 ± 1010
same,"Mitogenic Proliferation (SI), LPS, effect of CPDS diet","lymphocytes; 30 days, n=8, arrow image = increase",tendency to increase
same,"Mitogenic Proliferation, CON A",lymphocytes; [12],4441.8 ± 1733
same,"Mitogenic Proliferation, LPS",lymphocytes; [12],937.9 ± 232
same,"Mitogenic Proliferation, No stimulation",lymphocytes; [12],50.5 ± 23
same,"Mitogenic Proliferation, PHA",lymphocytes; [12],205.3 ± 74
same,"Mitogenic Proliferation, LPS","lymphocytes; Group 6, 6 days on CPDS diet, individual mice, 5 μg/ml LPS, no unit in table, method: CPM",1052.0 and 670.0 and 1091.3
same,"Mitogenic Proliferation, CON A","lymphocytes; Group 6, 6 days on CPDS diet, individual mice, 5 μg/ml con A, no unit in table, method: CPM",4876.7 and 2532.0 and 5916.7
same,"Mitogenic Proliferation, PHA","lymphocytes; Group 6, 6 days on CPDS diet, individual mice, 50 μg/ml PHA, no unit in table, method: CPM",237.3 and 120.0 and 258.7
same,"Mitogenic Proliferation, No stimulation","lymphocytes; Group 6, 6 days on CPDS diet, individual mice, no unit in table, method: CPM",78.0 and 34.7 and 38.7
same,"Proliferation with all three mitogens (PHA, ConA, LPS), in words",lymphocytes; after 6 days of treatment with CPDS,tendency towards an increase
